We go through six molecules from patent US4600715A, “Benzodiazepine antagonistic β-carboline derivatives and compositions thereof” (Shering Aktiengesellschaft, priority 1983, dated 1986).

Test [1] concerns the target benzodiazepine receptors. Put plainly: in vitro displacement of specific ^3 H flunitrazepam binding, cerebral membrane suspension. To be noted: ^3 H flunitrazepam 1.0 nM, 0° C.; rat cerebrum, pH 7.1; concentration effecting 50% displacement of specific binding.
In test [2] the target is benzodiazepine receptors. The following applies: comparison compound marked *Nature 294: 472 (1981); ^3 H flunitrazepam 1.0 nM, 0° C.; cited from earlier work.

In brackets after ≈: the same amount, converted by molar mass. Read-outs that look alike come from different tables or passages of the source.

For the molecule `C=CCN(CC=C)C(=O)c1ccc2[nH]c3cnc(C(=O)OCC)c(C)c3c2c1` [CO2 Et, CH3, CON(Allyl)2, 6-N,N-diallylcarbamoyl-4-methyl-β-carboline-3-carboxylic acid ethyl ester], on benzodiazepine receptors [1], the “IC50 (in vitro), displacement activity” value came out at 0.4 ng/mL (≈ 1.06 nM). On to `CCOC(=O)c1ncc2[nH]c3ccc(C(=O)N(C)C)cc3c2c1COC` [CO2 Et, CH2 OCH3, CON(CH3)2, 6-N,N-dimethylcarbamoyl-4-methoxymethyl-β-carboline-3-carboxylic acid ethyl ester], for which the “IC50 (in vitro), displacement activity” value at benzodiazepine receptors [1] was found to be 1.3 ng/mL (≈ 3.66 nM). The same measure, in the same setting: to `CCOC(=O)c1cc2c(cn1)[nH]c1ccc(C(=O)N3CCCCC3)cc12` [CO2 Et, H, drawing 10, 6-piperidinocarbonyl-β-carboline-3-carboxylic acid ethyl ester] belongs 0.6 ng/mL (≈ 1.71 nM); to `CCCOC(=O)c1ccc2[nH]c3cnc(C(=O)OCC)c(C)c3c2c1` [CO2 Et, Me, COOC3 H7, 6-propoxycarbonyl-4-methyl-β-carboline-3-carboxylic acid ethyl ester], 0.5 ng/mL (≈ 1.47 nM). As to `COC(=O)c1cc2c(cn1)[nH]c1ccccc12` [CO2 Me, H, H], the “IC50 (in vitro), displacement activity” value at benzodiazepine receptors [2] is 1.9 ng/mL (≈ 8.4 nM). On to `CCc1noc(-c2cc3c(cn2)[nH]c2ccc(C(=O)N4CCCCC4)cc23)n1` [drawing 11, H, drawing 12, 3-(5'-[3'-ethyl-1',2',4'-oxadiazol]yl)-β-carboline-6-carboxylic acid piperidide], for which the “IC50 (in vitro), displacement activity” value at benzodiazepine receptors [1] is 0.6 ng/mL (≈ 1.6 nM).
